# Experimental data reported in patent US10722582B2, “Targeted antimicrobial photodynamic therapy” (Purdue Research Foundation, priority 2018, dated 2020).
# Experiments:
# Assay type in all cases: cell-based, Staphylococcus aureus
# S. aureus (PCI 1203) [1] = experiment: Competitive hemin uptake assay (fluorescence microscopy); details: for Fluorescence after 15 min / Fluorescence after 15 min exposure + 1 equiv. hemin: Fe-deficient conditions (TS media containing 3 mM bipy), no background subtraction; for effect of hemin competition on uptake: one equivalent of hemin, 15 minutes of co-incubation
# Experimental: To elucidate the relevant structural features for the specific uptake of Ga-PpIX by S. aureus, we performed a competitive uptake assay using one equivalent of hemin against Ga-PpIX, PpIX, and eleven other fluorescent PpIX derivatives, with evaluation by fluorescence microscopy after 15 minutes of co-incubation (FIG. 5 and Table 4). These studies were partly guided by insights taken from the X-ray structures of hemin and Ga-PpIX within the binding pocket of IsdH: (i) coordination of the metal center by an apical tyrosine residue; (ii) the flanking of vinyl groups on pyrrole rings A and B against nearby aromatic residues; and (iii) the extension and presumed hydration of the propionyl groups (rings C and D) outside of the binding pocket.
# Bacteria were cultured and assayed in iron-deficient media unless otherwise noted. A stock solution of Ga-PpIX (14.6 μM) was prepared by dispersing 5 mg in 1 mL of 10% DMSO in PBS for 10 minutes in an ultrasonic cleaning bath protected from light, followed by filtration and 10× dilution in PBS just prior to use. Bacterial suspensions (0.5 mL) were treated with freshly prepared solutions of PpIX derivatives for specified periods (5-15 min), then harvested by centrifugation at 5.2 g for 5 minutes, redispersed twice in 0.5 mL deionized water, and centrifuged a third time. A 10-μL aliquot of concentrated bacteria was deposited onto a glass slide and dried in air for 20 min, then imaged by fluorescence microscopy as described above. For details on fluorescence image processing and quantitative analysis, see Supporting Information.
# S. aureus (PCI 1203; ATCC 10537) was first cultured in standard TS broth, then in media containing 3 mM bipyridine. Bacteria were pelleted and washed with PBS buffer three times, then resuspended to a final concentration of 10^8 cfu/mL. Stock solutions of hemin and PpIX derivatives 1-13 were prepared at initial concentrations of 292 μM; hemin and fluorescent PpIX solutions were mixed in a 1:1 ratio (0.5 mL), then added to 0.5 mL of bacterial suspension and allowed to sit for 15 min at room temperature. For control studies, hemin or fluorophore solutions were substituted with PBS to maintain constant […]. Bacteria were harvested and washed as described above, then evaluated by fluorescence microscopy for relative uptake efficiency.
# Darkfield and fluorescent images were acquired in succession, with the former used to map regions of interest (ROIs) by tracing the outlines of bacteria (FIG. 8). Three images were acquired for each sample; in each case, the tracing map was overlaid onto the fluorescence image to calculate pixel intensities within each ROI, using the mean pixel intensity for quantitative analysis. Bacteria were also imaged without treatment with PpIX analogs, most of which produced values close to that of background except for Salmonella enterica, which served as the upper limit of autofluorescence (cf. FIG. 4). Data collection and image analyses were performed by the same user to ensure consistency for comparative analysis.
# S. aureus (PCI 1203) [2] = experiment: as above; details: standard conditions (TS media); no background subtraction
# [3] = system: S. aureus (PCI 1203; ATCC 10537); experiment: aPDI with CFL irradiation (406 nm), planktonic bacteria, drop-plate colony count; details: for potency relative to dark toxicity (0 min exposure): 3-log reduction
# Experimental: The aPDI properties of Ga-PpIX were compared against PpIX, whose photosensitizer activities are well known and whose optical profile is similar to that of Ga-PpIX (FIG. 2).
# All bacterial strains were cultured at 37° C. in an aerobic atmosphere unless otherwise noted. […] Bacterial counts were estimated in units of cfu/mL by plating serial dilutions onto agar plates, followed by incubation for 16 hours at 37° C. […] Further details and variations on iron-deficient culture conditions are provided in Supporting Information.
# Antimicrobial assays were performed on planktonic bacteria at 10^7 cfu/mL with variable exposure times to CFL irradiation, followed by plating on agar and incubation at 37° C. […] The irradiated bacteria were plated onto agar in serial tenfold dilutions (10^7-10^1 cfu/mL); controls included one set of wells without photosensitizer, and one set of wells with photosensitizer but without 15 min irradiation, prior to plating (dark toxicity). Bacterial counts were determined by the drop-plate method using TS-agar plates, and reported in colony-forming units per milliliter (cfu/mL).
# The irradiation source consisted of a 20-W compact fluorescent lightbulb (CFL; Sunlite SL20/BLB) housed in an ellipsoidal reflector dome.
# S. aureus [4] = experiment: Antibacterial activity assay with LED light
# Experimental: (§1) Antibacterial activity assay general protocol: Used LED light to test conditions. Bacteria were grown in TS broth, followed by 3 mM bipyridine in TS broth until log phase. Bacteria were then diluted with PBS, to OD 0.1 (˜10^) and then to ˜10^7 cfu/mL. 100 uL of bacteria were placed in 96 well plates with the appropriate GaPpIX concentration. 2× serial dilutions were then done to obtain other GaPpIX concentrations. Each concentration was done in triplicate. Bacteria were left incubating and irradiating for different amount of times at different light powers or left in the dark. 10× Serial dilutions were done and bacteria were plated for colony counting using the drop-plate technique. Colonies were counted after 24 hours. As reported herein, a 3-log reduction equals measurable antimicrobial action; a 6-log reduction equals total eradication.
# (§2) Stock solution preparation (AVM-3-36, 10 nm AgNP). Prepared a solution of (AVM-2-273) GaPpIX-apoHb 1 mg/mL in MP H2O, deaerated. Took 10 mL of 10 nm AgNPs, centrifuged at 900 G for 5 min (Beckman, 3100 RPM), took supernantant and added 200 uL of GaPpIXHb. After overnight, centrifuged 3000 RPM g for 5 minutes (Beckman). Took supernantant and centrifuged using a 100 K CentriCon tube at 4000 RPM for 5 minutes, 3×. Added 15 mM borate buffer to NPs. Based on calibration curve, the stock solution is 1.94 ug/mL AgNP, so stock: 79 μg/mL AgNP, 10.37 μg/mL GaPpIXHb, 0.446 μg/mL GaPpIX (refer to AVM-2-293A and AVM-3-3).
# (§3) The following antibacterial activity measurements were assayed in the presence of AgNP.
# S. aureus [5] = experiment: aPDI with 405-nm LED bar, summary over strains; details: Ga-hemoglobin on 10-nm AgNP, 405-nm light, fluence about 1 J/cm^2
# Experimental: as §1
# MRSA386 = experiment: Antibacterial activity assay with LED light; details: in the presence of 10 nm AgNP
# Experimental: as §1, §2, §3
# MRSA385 = experiment: Antibacterial activity assay with LED light; details: in the presence of 10 nm AgNP
# Experimental: as §1, §2, §3
# MRSA383 = experiment: Antibacterial activity assay with LED light; details: in the presence of 10 nm AgNP
# Experimental: as §1, §2, §3
# MRSA387 = experiment: Antibacterial activity assay with LED light; details: in the presence of 10 nm AgNP
# Experimental: as §1, §2, §3
Compound,Fluorescence after 15 min (S. aureus (PCI 1203) [1]) [a.u.],Fluorescence after 15 min exposure + 1 equiv. hemin (S. aureus (PCI 1203) [1]) [a.u.],effect of hemin competition on uptake (S. aureus (PCI 1203) [1]),further results
Zn-HP [Zn-HP (5)],29.2,14.52,moderately affected by hemin,
"COC(=O)CCc1c(C)c2cc3nc(cc4nc(cc5[nH]c(cc1[nH]2)c(CCC(=O)OC)c5C)C(C(C)O)=C4C)C(C(C)O)=C3C (stereo not drawn) [HP diMe (8), HP dimethyl diester]",29.05,26.9,,
"Verteporfin [Verteporfin (13), reference compound]",30.75,28,less affected by hemin,Fluorescence after 15 min (S. aureus (PCI 1203) [2]): 25.82 a.u.; Fluorescence after 15 min exposure + 1 equiv. hemin (S. aureus (PCI 1203) [2]): 23.72 a.u.
"3,8-Diacetyldeuteroporphyrin dimethyl diester [DiAcDP diMe (12)]",20.9,18.05,less affected by hemin,
"CC1=C(CCC(=O)O)c2cc3[nH]c(cc4nc(cc5[nH]c(cc1n2)c(C)c5C(C)O)C(C)=C4C(C)O)c(C)c3CCC(=O)O (stereo not drawn) [HP (4), hematoporphyrin]",14.38,9.58,,
Ga(III)-PpIX dimethyl diester [Ga-PpIX diMe (6)],60.55,33.95,,
"C[n+]1ccc(-c2c3nc(c(-c4cc[n+](C)cc4)c4ccc([nH]4)c(-c4cc[n+](C)cc4)c4nc(c(-c5cc[n+](C)cc5)c5ccc2[nH]5)C=C4)C=C3)cc1 [TMPyP, reference compound]",,,,"Antimicrobial activity (minimum 3-log CFU reduction) ([3]; 0 min (dark), no irradiation (dark toxicity)): < 7.4 μM; Antimicrobial activity (minimum 3-log CFU reduction) ([3]; 0 min (dark), no irradiation (dark toxicity), listed as TMPy): <7.4 μM; Antimicrobial activity (minimum 3-log CFU reduction) ([3]; 5 min CFL 406 nm, 12.4 mW/cm^2 (3.7 J/cm^2)): 0.92 μM; potency relative to dark toxicity (0 min exposure) ([3]; 5 min CFL): <8x; Antimicrobial activity (minimum 3-log CFU reduction) ([3]; 15 min CFL 406 nm, 12.4 mW/cm^2 (11.2 J/cm^2)): 0.23 μM; potency relative to dark toxicity (0 min exposure) ([3]; 15 min CFL): <32x; concentration for 3-log reduction (measurable antimicrobial action) (S. aureus [4]): 235 nM; concentration for 6-log reduction (total eradication) (S. aureus [4]): 940 nM"
"C=CC1=C(C)c2cc3[n-]c(cc4nc(cc5[n-]c(cc1n2)c(C)c5C=C)C(C)=C4CCC(=O)O)c(CCC(=O)O)c3C.[Zn+2] [Zn-PpIX (3), Zn-PpIX]",31.45,16.87,moderately affected by hemin,
GaPpIX/10 nm HbAgNP: GaPpIX added to apohemoglobin (Ga-hemoglobin) adsorbed onto 10-nm Ag nanoparticles,,,,GaPpIX effective concentration (aPDI) (S. aureus [5]): 0.022 to 0.080 µM; concentration for 3-log reduction (MRSA386): 79 nM; concentration for 6-log reduction (MRSA386): 158 nM; concentration for 3-log reduction (MRSA385): 27 nM; concentration for 6-log reduction (MRSA385): 109 nM; concentration for 3-log reduction (S. aureus [4]; in the presence of 10 nm AgNP): 22 nM; concentration for 6-log reduction (S. aureus [4]; in the presence of 10 nm AgNP): 27 nM; concentration for 3-log reduction (MRSA383): 27 nM; concentration for 6-log reduction (MRSA383): 79 nM; concentration for 3-log reduction (MRSA387): 43 nM; concentration for 6-log reduction (MRSA387): 218 nM
di-O-acetyl-HP dimethyl diester [DiAcHP diMe (9)],21.6,18.95,less affected by hemin,
"C=CC1=C(C)c2cc3[nH]c(cc4[nH]c(cc5nc(cc1n2)C(C)=C5C=C)c(C)c4CCC(=O)OC)c(CCC(=O)OC)c3C [PpIX diMe (7), PpIX dimethyl diester]",15.75,12.75,,
Ga(III) diacetyldeuteroporphyrin (diAcDP) dimethyl diester [Ga-DiAcDP diMe (11)],12.27,11.85,less affected by hemin,
"C=CC1=C(C)c2cc3[n-]c(cc4[n-]c(cc5nc(cc1n2)C(C)=C5C=C)c(C)c4CCC(=O)O)c(CCC(=O)O)c3C.[Cl-].[Fe+3] [hemin, Fe(III)-protoporphyrin IX, reference compound]",2.55,,,
di-O-succinyl-HP dimethyl diester [DiSuccHP diMe (10)],19.37,16.9,less affected by hemin,
